Laboratory results published in patent publication US20070173462A1, “Treatment of diseases associated with the use of antibiotics” (Optimer Pharmaceuticals, Inc., priority 2004, published 2007).
Values after ≈ are worked out from the molar mass of the structure shown. Like-named read-outs stand apart in the source and are kept apart here.

Legend:
Assay type in all cases: cell-based
Moraxella sp. = assay: MIC, ATCC laboratory strains (NCCLS guidelines); settings: n=2, in µg/mL
Protocol: (§1) The activity of Compound I was tested against laboratory strains of different species of bacteria using NCCLS antimicrobial susceptibility testing guidelines. […] Including MRSA and Enterococcus sp. Including VRE (Table. 2).

Fusobacterium sp. = assay: MIC, ATCC laboratory strains (NCCLS guidelines); settings: n=1
Protocol: as §1

Citrobacter sp. = assay: MIC, ATCC laboratory strains (NCCLS guidelines); settings: n=2
Protocol: as §1

Bacillus sp. = assay: MIC, ATCC laboratory strains (NCCLS guidelines); settings: n=2
Protocol: as §1

Clostridium sp. = assay: MIC, ATCC laboratory strains (NCCLS guidelines)
Protocol: as §1

[1] = test system: Staphylococcus sp. (incl. MRSA); assay: MIC, ATCC laboratory strains (NCCLS guidelines)
Protocol: as §1

Bacteroides sp. = assay: MIC, ATCC laboratory strains (NCCLS guidelines); settings: n=5
Protocol: as §1

Enterobacteriaceae. = assay: MIC, ATCC laboratory strains (NCCLS guidelines); settings: n=10
Protocol: as §1

Neisseria sp. = assay: MIC, ATCC laboratory strains (NCCLS guidelines); settings: n=3, in µg/mL
Protocol: as §1

Micrococcus sp. = assay: MIC, ATCC laboratory strains (NCCLS guidelines)
Protocol: as §1

Helicobacter sp. = assay: MIC, ATCC laboratory strains (NCCLS guidelines); settings: n=1
Protocol: as §1

[2] = test system: Anaerobic Gram positive cocci; assay: MIC, ATCC laboratory strains (NCCLS guidelines); settings: n=4
Protocol: as §1

[3] = test system: Enterococcus sp. (incl. VRE); assay: MIC, ATCC laboratory strains (NCCLS guidelines)
Protocol: as §1

Eschericia coli = assay: organism not typed; settings: clinical gastrointestinal isolates, n=10
C. difficile = assay: MIC via agar dilution, 110 genetically distinct clinical isolates of C. difficile; settings: for MIC: Clostridioides difficile

`CCc1c(Cl)c(O)c(Cl)c(O)c1C(=O)O[C@H]1[C@H](O)[C@H](OC)[C@H](OC/C2=C\C=C\C[C@H](O)/C(C)=C/[C@H](CC)C(O[C@@H]3OC(C)(C)[C@@H](OC(=O)C(C)C)[C@H](O)[C@@H]3O)/C(C)=C/C(C)=C/C[C@@H](C(C)O)OC2=O)O[C@@H]1C` (some centres unmarked) [Compound I] was tested, and the “Range (MIC)” value (Moraxella sp.) was 1-2, the Range (MIC) (Fusobacterium sp.) was over 32 µg/mL and the Range (MIC) (Citrobacter sp.) was over 64 µg/mL. The Range (MIC) (Bacillus sp.) was 1 µg/mL, the “Range (MIC)” value (Clostridium sp.; ATCC laboratory strains, n=4) was “≦0.015-0.0625” and the “activity (in words)” value (Clostridium sp.; laboratory strains) was “excellent activity”. The “Range (MIC)” value ([1]; ATCC laboratory strains, n=6, in µg/mL) was 1-16, the “activity (in words)” value ([1]; laboratory strains, including MRSA) was “moderate activity” and the Range (MIC) (Bacteroides sp.) was over 32 µg/mL. The Range (MIC) (Enterobacteriaceae.) was over 32 µg/mL, the “Range (MIC)” value (Neisseria sp.) was 8-64 and the “Range (MIC)” value (Micrococcus sp.; ATCC laboratory strains, n=4) was “≦0.125”. The “activity (in words)” value (Micrococcus sp.; laboratory strains) was “excellent activity”, the Range (MIC) (Helicobacter sp.) was over 32 µg/mL and the “Range (MIC)” value [2] was “≦0.06-1”. The Range (MIC) ([3]; ATCC laboratory strains, n=4) was 4 µg/mL, the “activity (in words)” value ([3]; laboratory strains, including VRE) was “moderate activity” and the MIC50 (Eschericia coli) was over 256 µg/mL. For the same molecule, the MIC90 (Eschericia coli) was over 256 µg/mL, the “Range (MIC)” value (Eschericia coli) was over 256 µg/mL and the “Range (MIC)” value (C. difficile; 110 clinical isolates, agar dilution) was 0.015 to 0.25 µg/mL. For the same molecule, the MIC (C. difficile) was 0.125 µg/mL (≈ 0.118 µM), the MIC (C. difficile; isolate ORG ID 61 5930, read-out: MIC) was 0.03 µg/mL (≈ 0.0284 µM) and the MIC (C. difficile; isolate ORG ID 63 6029, read-out: MIC) was 0.25 µg/mL (≈ 0.236 µM). It also gave an MIC (C. difficile; isolate ORG ID 65 5967, read-out: MIC) of 0.06 µg/mL (≈ 0.0567 µM), an MIC (C. difficile; isolate ORG ID 66 6366, read-out: MIC) of 0.015 µg/mL (≈ 0.0142 µM) and an MIC (C. difficile; isolate ORG ID 68 6368, read-out: MIC) of 0.03 µg/mL (≈ 0.0284 µM). It also gave an MIC (C. difficile; isolate ORG ID 69 6370, read-out: MIC) of 0.25 µg/mL (≈ 0.236 µM), an MIC (C. difficile; isolate ORG ID 73 6382, read-out: MIC) of 0.25 µg/mL (≈ 0.236 µM) and an MIC (C. difficile; isolate ORG ID 77 6390, read-out: MIC) of 0.06 µg/mL (≈ 0.0567 µM). For the same molecule, the MIC (C. difficile; isolate ORG ID 78 6392, read-out: MIC) was 0.015 µg/mL (≈ 0.0142 µM), the MIC (C. difficile; isolate ORG ID 82 6329, read-out: MIC) was 0.06 µg/mL (≈ 0.0567 µM) and the MIC (C. difficile; isolate ORG ID 83 6330, read-out: MIC) was 0.06 µg/mL (≈ 0.0567 µM). For the same molecule, the MIC (C. difficile; isolate ORG ID 85 6332, read-out: MIC) was 0.06 µg/mL (≈ 0.0567 µM), the MIC (C. difficile; isolate ORG ID 86 6333, read-out: MIC) was 0.03 µg/mL (≈ 0.0284 µM) and the MIC (C. difficile; isolate ORG ID 89 6336, read-out: MIC) was 0.25 µg/mL (≈ 0.236 µM). The MIC (C. difficile; isolate ORG ID 94 6343, read-out: MIC) was 0.015 µg/mL (≈ 0.0142 µM), the MIC (C. difficile; isolate ORG ID 96 6348, read-out: MIC) was 0.06 µg/mL (≈ 0.0567 µM) and the MIC (C. difficile; isolate ORG ID 97 6349, read-out: MIC) was 0.25 µg/mL (≈ 0.236 µM). The MIC (C. difficile; isolate ORG ID 101 6354, read-out: MIC) was 0.015 µg/mL (≈ 0.0142 µM), the MIC (C. difficile; isolate ORG ID 102 6355, read-out: MIC) was 0.016 µg/mL (≈ 0.0151 µM) and the MIC (C. difficile; isolate ORG ID 103 6068, read-out: MIC) was 0.06 µg/mL (≈ 0.0567 µM). For the same molecule, the MIC (C. difficile; isolate ORG ID 104 6060, read-out: MIC) was 0.03 µg/mL (≈ 0.0284 µM), the MIC (C. difficile; isolate ORG ID 105 6071, read-out: MIC) was 0.03 µg/mL (≈ 0.0284 µM) and the MIC (C. difficile; isolate ORG ID 106 6078, read-out: MIC) was 0.03 µg/mL (≈ 0.0284 µM). For the same molecule, the MIC (C. difficile; isolate ORG ID 107 6079, read-out: MIC) was 0.06 µg/mL (≈ 0.0567 µM), the MIC (C. difficile; isolate ORG ID 109 6274, read-out: MIC) was 0.015 µg/mL (≈ 0.0142 µM) and the MIC (C. difficile; isolate ORG ID 111 6279, read-out: MIC) was 0.03 µg/mL (≈ 0.0284 µM). It also gave an MIC (C. difficile; isolate ORG ID 112 6280, read-out: MIC) of 0.06 µg/mL (≈ 0.0567 µM), an MIC (C. difficile; isolate ORG ID 113 6304, read-out: MIC) of 0.06 µg/mL (≈ 0.0567 µM) and an MIC (C. difficile; isolate ORG ID 114 386, read-out: MIC) of 0.06 µg/mL (≈ 0.0567 µM). For the same molecule, the MIC (C. difficile; isolate ORG ID 115 5985, read-out: MIC) was 0.015 µg/mL (≈ 0.0142 µM), the MIC (C. difficile; isolate ORG ID 116 5702, read-out: MIC) was 0.06 µg/mL (≈ 0.0567 µM) and the MIC (C. difficile; isolate ORG ID 117 6026, read-out: MIC) was 0.06 µg/mL (≈ 0.0567 µM). The MIC (C. difficile; isolate ORG ID 120 6057, read-out: MIC) was 0.03 µg/mL (≈ 0.0284 µM), the MIC (C. difficile; isolate ORG ID 121 6072, read-out: MIC) was 0.06 µg/mL (≈ 0.0567 µM) and the MIC (C. difficile; isolate ORG ID 122 6111, read-out: MIC) was 0.25 µg/mL (≈ 0.236 µM). For the same molecule, the MIC (C. difficile; isolate ORG ID AA2 4380, read-out: MIC) was 0.015 µg/mL (≈ 0.0142 µM), the MIC (C. difficile; isolate ORG ID AB2 1725, read-out: MIC) was 0.06 µg/mL (≈ 0.0567 µM) and the MIC (C. difficile; isolate ORG ID AC1 1546, read-out: MIC) was 0.06 µg/mL (≈ 0.0567 µM). The MIC (C. difficile; isolate ORG ID AJ1 1557, read-out: MIC) was 0.06 µg/mL (≈ 0.0567 µM), the MIC (C. difficile; isolate ORG ID AL1 1753, read-out: MIC) was 0.06 µg/mL (≈ 0.0567 µM) and the MIC (C. difficile; isolate ORG ID AV1 941, read-out: MIC) was 0.25 µg/mL (≈ 0.236 µM). For the same molecule, the MIC (C. difficile; isolate ORG ID B1 832, read-out: MIC) was 0.06 µg/mL (≈ 0.0567 µM), the MIC (C. difficile; isolate ORG ID BH1 4506, read-out: MIC) was 0.06 µg/mL (≈ 0.0567 µM) and the MIC (C. difficile; isolate ORG ID BM1 1453, read-out: MIC) was 0.06 µg/mL (≈ 0.0567 µM). It also gave an MIC (C. difficile; isolate ORG ID BR1 1321, read-out: MIC) of 0.06 µg/mL (≈ 0.0567 µM) and an MIC (C. difficile; isolate ORG ID BT1 706, read-out: MIC) of 0.06 µg/mL (≈ 0.0567 µM).
